Test [1] deals with T1, PARP7 (Homo sapiens, UniProt Q7Z3E1).
T1 construct: purchased BPS 80527
T1 sequence (Q7Z3E1 1-657): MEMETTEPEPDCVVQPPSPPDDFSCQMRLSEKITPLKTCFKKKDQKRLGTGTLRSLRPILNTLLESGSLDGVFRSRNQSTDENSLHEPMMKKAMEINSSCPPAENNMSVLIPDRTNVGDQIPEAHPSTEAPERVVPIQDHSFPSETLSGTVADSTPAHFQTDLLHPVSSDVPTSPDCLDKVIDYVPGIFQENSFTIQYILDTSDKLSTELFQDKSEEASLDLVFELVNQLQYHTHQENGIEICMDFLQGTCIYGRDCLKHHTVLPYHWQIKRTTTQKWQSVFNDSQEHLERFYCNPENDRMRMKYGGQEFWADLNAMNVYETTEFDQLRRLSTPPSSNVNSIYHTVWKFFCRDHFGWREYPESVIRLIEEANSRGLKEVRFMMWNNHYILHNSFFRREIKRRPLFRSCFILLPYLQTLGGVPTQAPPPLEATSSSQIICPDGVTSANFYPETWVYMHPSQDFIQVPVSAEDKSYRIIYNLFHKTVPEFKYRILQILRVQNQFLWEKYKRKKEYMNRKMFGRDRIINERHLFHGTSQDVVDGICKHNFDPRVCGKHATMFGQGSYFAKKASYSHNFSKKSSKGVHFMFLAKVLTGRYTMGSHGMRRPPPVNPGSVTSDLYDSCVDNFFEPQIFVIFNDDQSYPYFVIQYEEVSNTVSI
Nature of the test: PARP7 TR-FRET binding inhibition (displacement of probe RBN011147). The note with it: TR-FRET, Biotin-labeled probe RBN011147; read-out: PARP7 binding inhibition IC50. The protocol:
The ability of the compound to substitute the probe RBN011147 (Wigle et al., 2020, Cell Chemical Biology 27, 877-887) was tested by a TR-FRET method, and IC50 was calculated to evaluate the binding ability of the compound to PARP7. […]

A further test concerns NCI-H1373 cells. Put plainly: Inhibition on NCI-H1373 cell proliferation (Cell-Titer-Glo). It is filed as cell-based. The note with it: Homo sapiens, 144 h; NCI-H1373 cells, incubation for 6 days, Cell-Titer-Glo; read-out: NCI-H1373 cell proliferation inhibition IC50. How it is done:
The inhibitory effect of the compound on PARP7 was evaluated by testing the inhibitory effect of the compound on NCI-H1373 cell proliferation.
NCI-H1373 cells (ATCC, CRL-5866) were cultured in a complete medium, namely, a RPMI-1640 medium (Gibco, 22400089) containing 10% fetal bovine serum (Corning, 35-081-CV).
Negative control wells and positive control wells were added with 50 nL DMSO (Sigma, D2650), respectively.
In "Day 0" detection plate, NCI-H1373 cells were seeded at a density of 600 cells/well (50 µL) in a complete medium into the Day 0 test wells of a 384-well detection plate (Grenier, 781091). Then, 25 µL of Cell-Titer-Glo reagent (Promega, G7573) was added to each well, followed by centrifugation at 1000 rpm at room temperature for 1 minute and incubation at room temperature under shaded conditions for 10 min. Chemiluminescence signals were collected using an Envision (Perkin Elmer, EnVision 2105) to obtain the average value of the Day 0 test values.
In "compound detection plate", NCI-H1373 cells were seeded at a density of 600 cells/well (50 µL) in a complete medium into the negative control wells and the compound detection wells of a 384-well detection plate (Grenier, 781091), and 50 µL of cell culture medium was added to the positive control wells, followed by centrifugation at 1000 rpm at room temperature for 1 minute and placing in a cell incubator at 37°C, 5% CO2 for incubation for 6 days. […] Chemiluminescence signals were collected using an Envision (Perkin Elmer, EnVision 2105). The test values for each compound well, negative control well, and positive control well were obtained.
The proliferation inhibition ratio formula is as follows: [formula]
The average value of the negative control = the average value of the Day 6 test values of each negative control well minus the average value of the Day 0 test values
The average value of the positive control = the average value of the Day 6 test values of each positive control well
The average value of the compound test = (the Day 6 test value of compound test well 1 + the Day 6 test value of compound test well 2)/2 - the average value of the Day 0 test values

For test [2], the target named is T1, PARP7. Put plainly: Inhibition of the compound on PARP7 protein activity (ADP-ribosylation, chemiluminescence). It is filed as biochemical. The note with it: Histone H1 coated plate, Biotin-Labeled NAD+, 2 h at room temperature, chemiluminescence; read-out: PARP7 activity inhibition IC50.

Some results are limits rather than exact numbers.

Take `CC(CCCNC(=O)c1ccc(-c2cc(C(F)(F)F)sn2)cc1)Nc1cn[nH]c(=O)c1C(F)(F)F` (stereo not drawn) [Example 83]: the values for the IC50 on PARP7 [1] and in the test on NCI-H1373 cells were less than 10 nM and less than 300 nM, respectively.
For `C[C@H]1CCN1C(=O)[C@@H](CCCNC(=O)c1ccc(-c2ncc(C(F)(F)F)s2)cc1)Nc1cn[nH]c(=O)c1C(F)(F)F` [Example 240] the same measures were 10 to 30 nM and greater than 3000 nM.
Take `O=C(NCC1CC(Nc2cn[nH]c(=O)c2C(F)(F)F)C1)c1ccc(-c2ncc(C(F)(F)F)cn2)cc1` (stereo not drawn) [Example 226]: the IC50 on PARP7 [1] was greater than 100 nM.
Take `CC(CCCN(C)C(=O)c1cnc(N2CCOCC2)cn1)Nc1cn[nH]c(=O)c1C(F)(F)F` (stereo not drawn) [Example 36]: the IC50 was 30 to 100 nM on PARP7 [2] and greater than 100 nM at PARP7 [1].
Consider `Cc1cc(NC(C)CCCN(C)C(=O)c2ccc(-c3ncc(C(F)(F)F)cn3)cc2O)c(C#N)c(=O)[nH]1` (stereo not drawn) [Example 33], for which the IC50 is 30 to 100 nM on PARP7 [2] and greater than 100 nM at PARP7 [1].
In the case of `CC[C@@H]1CN(C(=O)[C@@H](CCCNC(=O)c2ccc(-c3ncc(C(F)(F)F)s3)cc2)Nc2cn[nH]c(=O)c2C(F)(F)F)CCO1` [Example 262], the IC50 was 10 to 30 nM on PARP7 [1] and less than 300 nM in the test on NCI-H1373 cells.
For `NC(=O)c1cccc2cn(CCCNC(=O)c3ncc(-c4ncc(C(F)(F)F)s4)cc3F)nc12` [Example 249] the same measures were 30 to 100 nM and greater than 3000 nM.
Turning to `CC(CCCN(C)C(=O)c1cnc(N2CCN(C3CC3)CC2)cn1)Nc1cn[nH]c(=O)c1C(F)(F)F` (stereo not drawn) [Example 37], the IC50 at PARP7 [2] and on PARP7 [1] was greater than 100 nM in each case.
In the case of `O=C(NCCC[C@@H](Nc1cn[nH]c(=O)c1C(F)(F)F)C(=O)N1CCSCC1)c1ccc(-c2ncc(C(F)(F)F)s2)cc1` [Example 236], the IC50 fell in the range of 10 to 30 nM at PARP7 [1] and 300 to 1000 nM in the test with NCI-H1373 cells.
Turning to `O=C(c1ccc(-c2ncc(C(F)(F)F)s2)cc1)N1CC2(CC(Nc3cn[nH]c(=O)c3C(F)(F)F)C2)C1` [Example 219], the IC50 on PARP7 [1] is greater than 100 nM.
On the same count and under the same terms, under `NC(=O)c1cccc2cn(CCCn3ccc4cc(-c5ncc(C(F)(F)F)cn5)c(F)cc4c3=O)nc12` [Example 254] stands greater than 100 nM.
`CC(CCNC(=O)c1n[nH]c2c1CCN(c1ncc(C(F)(F)F)cn1)C2)Nc1cn[nH]c(=O)c1C(F)(F)F` (stereo not drawn) [Example 8]: the IC50 on PARP7 [1] is 10 to 30 nM; in the test on NCI-H1373 cells, greater than 3000 nM.
For `CC(COCc1cc(-c2cnc(C(F)(F)F)nc2)sn1)Nc1cn[nH]c(=O)c1C(F)(F)F` (stereo not drawn) [Example 251] the same measures were greater than 100 nM and greater than 3000 nM.
For `CC(C)NC(=O)[C@@H](CCCNC(=O)c1ccc(-c2ncc(C(F)(F)F)s2)cc1)Nc1cn[nH]c(=O)c1C(F)(F)F` [Example 258] the same measures were less than 10 nM and less than 300 nM.
For `C[C@@H]1CCN(C(=O)[C@@H](CCCNC(=O)c2ccc(-c3ncc(C(F)(F)F)s3)cc2)Nc2cn[nH]c(=O)c2C(F)(F)F)C1` [Example 225] the same measures were less than 10 nM and less than 300 nM.
`CC(CCCn1ccc2cc(-c3ncc(C(F)(F)F)cn3)cnc2c1=O)Nc1cn[nH]c(=O)c1C(F)(F)F` (stereo not drawn) [Example 250]: the IC50 was 10 to 30 nM at PARP7 [1] and greater than 3000 nM in the test on NCI-H1373 cells.
For `NC(=O)c1cccc2cn(CCCn3cnc4cc(-c5ncc(C(F)(F)F)cn5)c(F)cc4c3=O)nc12` [Example 252] the same measures were greater than 100 nM and greater than 3000 nM.
For the compound `O=C(CCc1c[nH]c(=O)c2ccccc12)Nc1ccc(-c2ncc(C(F)(F)F)cn2)cc1` [Example 12], the figures for the IC50 at PARP7 [2] and on PARP7 [1] were 3 to 10 nM and 10 to 30 nM, respectively.
In the case of `O=C(NCCC[C@@H](Nc1cn[nH]c(=O)c1C(F)(F)F)C(=O)N1CCC2(CC2)C1)c1ccc(-c2ncc(C(F)(F)F)s2)cc1` [Example 220], the IC50 at PARP7 [1] was less than 10 nM; in the test with NCI-H1373 cells, less than 300 nM.
For `O=C(NCCC[C@@H](Nc1cn[nH]c(=O)c1C(F)(F)F)C(=O)Nc1cccnc1)c1ccc(-c2ncc(C(F)(F)F)s2)cc1` [Example 234] the same measures were less than 10 nM and 300 to 1000 nM.
As to `Cc1cc(NCCCC(C)NC(=O)c2cnc(-c3ncc(C(F)(F)F)cn3)cn2)c(C#N)c(=O)[nH]1` (stereo not drawn) [Example 49], the IC50 on PARP7 [2] was 30 to 100 nM; at PARP7 [1], greater than 100 nM.
Turning to `O=C(NCCC1CC(OC2CC2)CN1c1cn[nH]c(=O)c1C(F)(F)F)c1ccc(-c2ncc(C(F)(F)F)s2)cn1` (stereo not drawn) [Example 138], on PARP7 [1], the IC50 is greater than 100 nM.
As to `CCN(C)C(=O)[C@@H](CCCNC(=O)c1ccc(-c2ncc(C(F)(F)F)s2)cc1)Nc1cn[nH]c(=O)c1C(F)(F)F` [Example 259], the IC50 is less than 10 nM on PARP7 [1] and less than 300 nM in the test with NCI-H1373 cells.
Take `CC(CC1CN(C(=O)c2ccc(-n3cc(C(F)(F)F)cn3)cc2)C1)Nc1cn[nH]c(=O)c1C(F)(F)F` (stereo not drawn) [Example 218]: the IC50 on PARP7 [1] was greater than 100 nM.
Regarding `Cc1cnc(-c2cnc(C(=O)NCCCC(C)Nc3cn[nH]c(=O)c3C(F)(F)F)cn2)s1` (stereo not drawn) [Example 24], the IC50 on PARP7 [1] was 10 to 30 nM; in the test on NCI-H1373 cells, greater than 3000 nM.
`CC(CCNC(=O)c1n[nH]c2cc(-c3ncc(C(F)(F)F)cn3)ccc12)Nc1cn[nH]c(=O)c1C(F)(F)F` (stereo not drawn) [Example 7]: the IC50 was 30 to 100 nM at PARP7 [1] and greater than 3000 nM in the test on NCI-H1373 cells.
For the compound `N#CC1CCN(C(=O)C(CCCNC(=O)c2ccc(-c3ncc(C(F)(F)F)s3)cc2)Nc2cn[nH]c(=O)c2C(F)(F)F)C1` (stereo not drawn) [Example 261], the results for the IC50 at PARP7 [1] and in the test with NCI-H1373 cells were 30 to 100 nM and 300 to 1000 nM, respectively.
Regarding `COC1CCN(C(=O)[C@@H](CCCNC(=O)c2ccc(-c3ncc(C(F)(F)F)s3)cc2)Nc2cn[nH]c(=O)c2C(F)(F)F)CC1` [Example 255], the IC50 at PARP7 [1] was less than 10 nM; with NCI-H1373 cells it was 300 to 1000 nM.
For `Cc1cccc(NC(=O)[C@@H](CCCNC(=O)c2ccc(-c3ncc(C(F)(F)F)s3)cc2)Nc2cn[nH]c(=O)c2C(F)(F)F)n1` [Example 257] the same measures were less than 10 nM and less than 300 nM.
In the case of `CC(CCCNC(=O)c1ccc(-c2ncc(C(F)(F)F)s2)cc1F)Nc1cc[nH]c(=O)c1C#N` (stereo not drawn) [Example 71], the IC50 at PARP7 [2] and at PARP7 [1] was greater than 100 nM in each case.
`CC1(NC(=O)[C@@H](CCCNC(=O)c2ccc(-c3ncc(C(F)(F)F)s3)cc2)Nc2cn[nH]c(=O)c2C(F)(F)F)CCOCC1` [Example 227]: the IC50 on PARP7 [1] is less than 10 nM; with NCI-H1373 cells, less than 300 nM.
For `CC(CCCn1ccc2cc(-c3ncc(C(F)(F)F)s3)cnc2c1=O)Nc1cn[nH]c(=O)c1C(F)(F)F` (stereo not drawn) [Example 253] the same measures were less than 10 nM and 1000 to 3000 nM.
For `COC1CN(C(=O)[C@@H](CCCNC(=O)c2ccc(-c3ncc(C(F)(F)F)s3)cc2)Nc2cn[nH]c(=O)c2C(F)(F)F)C1` [Example 256] the same measures were less than 10 nM and 300 to 1000 nM.
For `N#C[C@@H]1CCCN(C(=O)[C@@H](CCCNC(=O)c2ccc(-c3ncc(C(F)(F)F)s3)cc2)Nc2cn[nH]c(=O)c2C(F)(F)F)C1` [Example 260] the same measures were 10 to 30 nM and 1000 to 3000 nM.
For `Cc1c(-c2cnc(C(F)(F)F)s2)ncn(CCCC(C)Nc2cn[nH]c(=O)c2C(F)(F)F)c1=O` (stereo not drawn) [Example 248], the values for the IC50 on PARP7 [1] and in the test with NCI-H1373 cells were 30 to 100 nM and greater than 3000 nM, respectively.
With `O=C(NCC1CC(Nc2cn[nH]c(=O)c2C(F)(F)F)C1)c1ccc(-c2ncc(C(F)(F)F)s2)cc1` (stereo not drawn) [Example 129], the IC50 on PARP7 [1] is greater than 100 nM.

The values above are taken from patent EP4800012A1, “COMPOUND ACTING AS PARP7 INHIBITOR” (Dovetree Medicines Unus, Inc., priority 2023, dated 2025).
